Values quoted from earlier work as cited in patent US20110130710A1, “TREATMENT OF ABNORMAL OR EXCESSIVE SCARS” (priority 2007, published 2011).

B1: keratinocyte growth factor (protein, UniProt P21781 32-194, looked up)
Fibroblast growth factor 7: CNDMTPEQMATNVNCSSPERHTRSYDYMEGGDIRVRRLFCRTQWYLRIDKRGKVKGTQEMKNNYNIMEIRTVAVGIVAIKGVESEFYLAMNKEGKLYAKKECNEDCNFKELILENHYNTYASAKWTHNGGEMFVALNQKGIPVRGKKTKKEQKTAHFLPMAIT
notes: growth factor useful for wound healing

Tests used:
[1] = applied topically
epithelial tissue = conditions: about 50 μl, topical application

| Molecule | effective dose of PDGF [1] [ng/mm^2] | concentration of KGF that may be effective for wound healing (epithelial tissue) |
| --- | --- | --- |
| platelet derived growth factor [PDGF] | ≥ 5 |  |
| B1 |  | about 5 μg/ml |
